Experiments:
[1] = molecular target: T1, Peroxisome proliferator-activated receptor gamma (Homo sapiens, UniProt P37231); assay: Antagonist activity at human PPARgamma receptor assessed as rosiglitazone-induced receptor activation by alphascreen assay; assay type: functional
T1 sequence (P37231 whole entry): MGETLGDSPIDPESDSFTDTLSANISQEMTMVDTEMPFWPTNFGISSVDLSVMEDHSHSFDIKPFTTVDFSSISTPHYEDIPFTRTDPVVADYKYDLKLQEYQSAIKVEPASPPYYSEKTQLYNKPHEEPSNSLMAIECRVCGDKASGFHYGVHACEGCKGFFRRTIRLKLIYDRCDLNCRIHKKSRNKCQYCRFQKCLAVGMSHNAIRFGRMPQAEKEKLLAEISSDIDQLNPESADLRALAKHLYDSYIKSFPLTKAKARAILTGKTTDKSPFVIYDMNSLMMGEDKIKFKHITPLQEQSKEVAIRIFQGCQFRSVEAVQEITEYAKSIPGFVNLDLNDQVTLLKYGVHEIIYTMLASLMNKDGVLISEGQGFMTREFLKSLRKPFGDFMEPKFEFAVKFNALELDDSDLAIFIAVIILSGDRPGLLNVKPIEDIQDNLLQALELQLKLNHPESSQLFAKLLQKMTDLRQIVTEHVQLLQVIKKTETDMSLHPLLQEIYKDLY

[2] = molecular target: T1, Peroxisome proliferator-activated receptor gamma; assay: Displacement of [3H]rosiglitazone from human PPARgamma receptor by scintillation proximity assay
[3] = molecular target: T1, Peroxisome proliferator-activated receptor gamma; assay: Antagonist activity at human PPARgamma receptor in CHO-K1 cells assessed as rosiglitazone-induced receptor activation by cell based reporter assay; assay type: functional

`COC(=O)c1cc2c(c(O)c1C(C)OC(C)=O)C(=O)c1c(O)cc3cc(C)c(Cl)c(OC)c3c1C2=O` (configuration not stated) [CHLOROCYCLINONE B] showed an IC50 [1] of 100 nM, an EC50 [2] of 160 nM and an IC50 [3] of 1400 nM.
`CCc1c(C(=O)OC)cc2c(c1O)C(=O)c1c(O)cc3cc(C)c(Cl)c(OC)c3c1C2=O` [CHLOROCYCLINONE A] was tested, and the IC50 [1] was 160 nM, the EC50 [2] was 180 nM and the IC50 [3] was 7000 nM.
`COc1c(Cl)c(C)cc2cc(O)c3c(c12)C(=O)c1cc2c(c(O)c1C3=O)C(C)OC2=O` (configuration not stated) [CHLOROCYCLINONE D] showed an IC50 [1] of 320 nM, an EC50 [2] of 260 nM and an IC50 [3] of 4400 nM.
In the case of `COC(=O)c1cc2c(c(O)c1C(C)OC(=O)CO)C(=O)c1c(O)cc3cc(C)c(Cl)c(OC)c3c1C2=O` (configuration not stated) [CHLOROCYCLINONE C], the IC50 [1] is reported as 90 nM, the EC50 [2] is reported as 130 nM and the IC50 [3] is reported as 600 nM.
